The target of one assay is T1, recombinant His-tag Y220C p53 DBD protein (Homo sapiens, UniProt P04637, Y220C).
T1 construct: recombinant His-tag Y220C p53 DBD protein (amino acids #˜94-312)
Description: In vitro DNA binding activity assay (TR-FRET): binding of His-tag Y220C p53 DBD to biotin-labeled consensus DNA. It is filed as biochemical. Particulars: SC150 = concentration to increase DNA binding by […], His-tag Y220C p53 DBD, biotin-labeled consensus DNA. The protocol: DNA binding activity of the compounds was measured using a TR-FRET (Time-Resolved Fluorescence Resonance Energy Transfer) assay in which recombinant His-tag Y220C p53 DBD protein binds to biotin-labeled consensus DNA. Binding of recombinant His-tag Y220C p53 DBD protein and biotin-labeled consensus DNA was registered by the FRET (fluorescence resonance energy transfer) between allophycocyanin (APC) conjugated anti-His tag antibody and Europium-(Eu) conjugated Streptavidin.
The compounds of TABLES 1-9 (2 mM stock in dimethylsulfoxide) were diluted 3-fold in series in dimethylsulfoxide. 1.2 μL of a compound solution was added to each well of 384-well polypropylene black plates (NUNC). Thirty μL per well of 181 nM recombinant His-tag Y220C p53 DBD protein (amino acids #˜94-312; SEQ ID NO: 1) and 6.1 nM of APC conjugated anti-His tag antibody (Columbia Biosciences) in ice-cold Assay Buffer 1 (50 mM Tris-HCl, pH 7.4, 75 mM KCl, 0.75 mM DTT and 0.2 mg/ml, BSA) were added. As a background control. 30 μL of Assay Buffer 1 containing 6.1 nM of APC anti-His antibody (No Y220C protein) was also added into a second set of serially diluted compound plates. The samples were spun by centrifuge at 1,200 rpm (Eppendorf 5810R Plate centrifuge) for 1 minute and incubated at room temperature (20° C.) for 15 min. The samples were then further incubated at either 27° C. or 29° C. for 60 min. […] The samples were spun by centrifuge at 1,200 rpm for 1 min and incubated at room temperature (20° C.) for 20 min. Assay signals were monitored by reading excitation at 340 nm, and emission fluorescence at 615 nm and 665 nm on an Envision® reader. Normalized TR-FRET (time-resolved fluorescence resonance energy transfer) assay signal (Rn) was calculated by the formula: Rn=[(A−Ba−C×(D−Bd))/(D−Bd)]×(D−Bd) Wherein: • A is the fluorescence intensity of the sample at 665 nm; • D is the fluorescence intensity of the sample at 615 nm; • Ba and Bd are plate backgrounds at 665 nm and 615 nm, respectively; and • Dc is the fluorescence intensity of 0.67 nM Eu-SA in the assay buffer at 615 nm.
The cross-talk factor (C) was determined by the following formula: C=(Ac−Ba)/(Dc−Bd) wherein Ac is the fluorescence intensity of 0.67 nM Europium (Eu) conjugated Streptavidin in the assay buffer at 665 nm.
(TR-FRET usually uses a lanthanide donor and a delayed reading to cut background.)
For `CN1CC[C@H](Nc2cccc3c2cc(-c2ccc(CNC(=O)c4ccccc4)s2)n3CC(F)(F)F)[C@H](F)C1` (racemic) [Compound 102B, (+/−)-N-{[5-(4-{[(3R,4S)-3-fluoro-1-methylpiperidin-4-yl]amino}-1-(2,2,2-trifluoroethyl)-1H-indol-2-yl)thiophen-2-yl]methyl}benzamide], the “Y220C SC150 (μM)” value was “** (** = 0.1 μM ≤ SC150 < 0.5 μM)”. The same measure, in the same setting: the entry for `O=C(NCc1nc(-c2cc3c(NC4CCN(C5CC5)CC4)cccc3n2CC(F)(F)F)no1)C1CC1` [Compound 164B, N-[(3-{4-[(1-cyclopropylpiperidin-4-yl)amino]-1-(2,2,2-trifluoroethyl)-1H-indol-2-yl}-1,2,4-oxadiazol-5-yl)methyl]cyclopropanecarboxamide] is “* (* = 0 μM ≤ SC150 < 0.1 μM)”; for `CC(C)(C)n1ccc(C(=O)NCc2nc(-c3cc4c(N[C@H]5CC[C@H](F)CC5)cccc4n3CC(F)(F)F)no2)c1` [Compound 354B, 1-tert-butyl-N-{[3-(4-{[(1r,4r)-4-fluorocyclohexyl]amino}-1-(2,2,2-trifluoroethyl)-1H-indol-2-yl)-1,2,4-oxadiazol-5-yl]methyl}-1H-pyrrole-3-carboxamide] it is “* (* = 0 μM ≤ SC150 < 0.1 μM)”.

Regarding `CN1CCC(Nc2cccc3c2cc(-c2noc(CNC(=O)c4cnn(C)c4)n2)n3CC(F)(F)F)CC1` [Compound 154B, 1-methyl-N-[(3-{4-[(1-methylpiperidin-4-yl)amino]-1-(2,2,2-trifluoroethyl)-1H-indol-2-yl}-1,2,4-oxadiazol-5-yl)methyl]-1H-pyrazole-4-carboxamide], the “Y220C SC150 (μM)” value is recorded as “* (* = 0 μM ≤ SC150 < 0.1 μM)”. With `CN1CCC(Nc2cccc3c2cc(-c2noc(CNC(=O)c4ccn(C)n4)n2)n3CC(F)(F)F)CC1` [Compound 155B, 1-methyl-N-[(3-{4-[(1-methylpiperidin-4-yl)amino]-1-(2,2,2-trifluoroethyl)-1H-indol-2-yl}-1,2,4-oxadiazol-5-yl)methyl]-1H-pyrazole-3-carboxamide], the “Y220C SC150 (μM)” value is on record as “* (* = 0 μM ≤ SC150 < 0.1 μM)”. For the compound `CN1CC[C@@H](Nc2cccc3c2cc(-c2noc(CNC(=O)c4ccn([C@H]5CC[C@@H](N(C)C)C5)c4)n2)n3CC(F)(F)F)[C@@H](F)C1` (stereo in doubt) [Compound 362B, Cis-1-[(1R,3R)-3-(dimethylamino)cyclopentyl]-N-{[3-(4-{[(3S,4R)-3-fluoro-1-methylpiperidin-4-yl]amino}-1-(2,2,2-trifluoroethyl)-1H-indol-2-yl)-1,2,4-oxadiazol-5-yl]methyl}-1H-pyrrole-3-carboxamide], the “Y220C SC150 (μM)” value is listed as “* (* = 0 μM ≤ SC150 < 0.1 μM)”.

Take `CN1CCC(Nc2cccc3c2cc(-c2nnc(CNC(=O)c4ccccn4)s2)n3CC(F)(F)F)CC1` [Compound 41B, N-[(5-{4-[(1-methylpiperidin-4-yl)amino]-1-(2,2,2-trifluoroethyl)-1H-indol-2-yl}-1,3,4-thiadiazol-2-yl)methyl]pyridine-2-carboxamide]: the “Y220C SC150 (μM)” value was “** (** = 0.1 μM ≤ SC150 < 0.5 μM)”. Regarding `CN1CC[C@@H](Nc2cccc3c2cc(-c2noc(CNC(=O)[C@H]4C[C@@H]4c4ccccc4)n2)n3CC(F)(F)F)[C@@H](F)C1` (racemic) [Compound 180B, (+/−)-(1R,2R)-N-{[3-(4-{[(3R,4S)-3-fluoro-1-methylpiperidin-4-yl]amino}-1-(2,2,2-trifluoroethyl)-1H-indol-2-yl)-1,2,4-oxadiazol-5-yl]methyl}-2-phenylcyclopropane-1-carboxamide], the “Y220C SC150 (μM)” value is on record as “* (* = 0 μM ≤ SC150 < 0.1 μM)”. Regarding `CO[C@H]1C[C@H](n2ccc(C(=O)NCc3nc(-c4cc5c(N[C@@H]6CCN(C)C[C@@H]6F)cccc5n4CC(F)(F)F)no3)c2)C1` [Compound 449B, N-{[3-(4-{[(3S,4R)-3-fluoro-1-methylpiperidin-4-yl]amino}-1-(2,2,2-trifluoroethyl)-1H-indol-2-yl)-1,2,4-oxadiazol-5-yl]methyl}-1-[(1r,3r)-3-methoxycyclobutyl]-1H-pyrrole-3-carboxamide], the “Y220C SC150 (μM)” value was “* (* = 0 μM ≤ SC150 < 0.1 μM)”. For `CN1CCC(n2cc(C(=O)NCc3nc(-c4cc5c(N[C@@H]6CCN(C)C[C@@H]6F)cccc5n4CC(F)(F)F)no3)cn2)C1` (stereo partly drawn) [Compound 349B, N-{[3-(4-{1[(3S,4R)-3-fluoro-1-methylpiperidin-4-yl]amino}-1-(2,2,2-trifluoroethyl)-1H-indol-2-yl)-1,2,4-oxadiazol-5-yl]methyl}-1-(1-methylpyrrolidin-3-yl)-1H-pyrazole-4-carboxamide], the “Y220C SC150 (μM)” value is given as “* (* = 0 μM ≤ SC150 < 0.1 μM)”. Still for that read-out and setting: next, `CN1CCC(n2cc(C(=O)NCc3nc(-c4cc5c(N[C@@H]6CCN(C)C[C@@H]6F)cccc5n4CC(F)(F)F)no3)cn2)CC1` [Compound 350B, N-{[3-(4-{1[(3S,4R)-3-fluoro-1-methylpiperidin-4-yl]amino}-1-(2,2,2-trifluoroethyl)-1H-indol-2-yl)-1,2,4-oxadiazol-5-yl]methyl}-1-(1-methylpiperidin-4-yl)-1H-pyrazole-4-carboxamide]: “* (* = 0 μM ≤ SC150 < 0.1 μM)”; `CO[C@H]1CCC[C@@H]1n1ccc(C(=O)NCc2nc(-c3cc4c(N[C@@H]5CCN(C)C[C@@H]5F)cccc4n3CC(F)(F)F)no2)c1` (relative stereo) [Compound 355B]: “* (* = 0 μM ≤ SC150 < 0.1 μM)”; `CN1CC[C@@H](Nc2cccc3c2cc(-c2noc(CNC(=O)[C@@H]4C[C@H]4c4ccc(F)cc4)n2)n3CC(F)(F)F)[C@@H](F)C1` [Compound 210B, (1R,2R)-N-{[3-(4-{[(3S,4R)-3-fluoro-1-methylpiperidin-4-yl]amino}-1-(2,2,2-trifluoroethyl)-1H-indol-2-yl)-1,2,4-oxadiazol-5-yl]methyl}-2-(4-fluorophenyl)cyclopropane-1-carboxamide]: “* (* = 0 μM ≤ SC150 < 0.1 μM)”.

With `CC(C)c1cc(C(=O)NCc2nc(-c3cc4c(N[C@@H]5CCN(C)C[C@@H]5F)cccc4n3CC(F)(F)F)no2)co1` [Compound 526B, N-{[3-(4-{[(3S,4R)-3-fluoro-1-methylpiperidin-4-yl]amino}-1-(2,2,2-trifluoroethyl)-1H-indol-2-yl)-1,2,4-oxadiazol-5-yl]methyl}-5-(propan-2-yl)furan-3-carboxamide], the “Y220C SC150 (μM)” value is “* (* = 0 μM ≤ SC150 < 0.1 μM)”. Turning to `CN1CCC(Nc2cccc3c2cc(-c2nc(CNC(=O)c4cnn(C)c4)no2)n3CC(F)(F)F)CC1` [Compound 140B, 1-methyl-N-[(5-{4-[(1-methylpiperidin-4-yl)amino]-1-(2,2,2-trifluoroethyl)-1H-indol-2-yl}-1,2,4-oxadiazol-3-yl)methyl]-1H-pyrazole-4-carboxamide], the “Y220C SC150 (μM)” value is “** (** = 0.1 μM ≤ SC150 < 0.5 μM)”. Same read-out and setting: the entry for `CN1CC[C@@H](F)[C@@H](Nc2cccc3c2cc(-c2noc(CNC(=O)c4ccn(C5(C)CCOCC5)c4)n2)n3CC(F)(F)F)C1` [Compound 419B, N-{[3-(4-{[(3S,4R)-4-fluoro-1-methylpiperidin-3-yl]amino}-1-(2,2,2-trifluoroethyl)-1H-indol-2-yl)-1,2,4-oxadiazol-5-yl]methyl}-1-(4-methyloxan-4-yl)-1H-pyrrole-3-carboxamide] is “* (* = 0 μM ≤ SC150 < 0.1 μM)”; for `COc1cc(S(C)(=O)=O)ccc1NCc1nnc(-c2cc3c(N[C@H]4CCN(C)C[C@@H]4F)cccc3n2CC(F)(F)F)o1` (racemic) [Compound 123B, (+/−)-N-[(3R,4R)-3-fluoro-1-methylpiperidin-4-yl]-2-(5-{[(4-methanesulfonyl-2-methoxyphenyl)amino]methyl}-1,3,4-oxadiazol-2-yl)-1-(2,2,2-trifluoroethyl)-1H-indol-4-amine] it is “** (** = 0.1 μM ≤ SC150 < 0.5 μM)”.

Still in this assay, the particulars now being: concentration to increase DNA binding by […], incubated at either 27° C. or 29° C. for 60 min.
Turning to `CS(=O)(=O)c1ccc(NCc2ccc(-c3cc4c(NC5CCN(C6CCOCC6)CC5)cccc4n3CC(F)(F)F)cc2)cc1` [Compound 30A, 2-(4-{[(4-methanesulfonylphenyl)amino]methyl}phenyl)-N-[1-(oxan-4-yl)piperidin-4-yl]-1-(2,2,2-trifluoroethyl)-1H-indol-4-amine], the “SC150 (μM)” value is given as “+ (+ = 0 μM ≤ SC150 < 2 μM)”.

Source of the values: patent publication US11807644B2 (PMV Pharmaceuticals, Inc., priority 2020, dated 2023).
